Common to all, as to assay type: cell-based
Experiment [1] addresses T1, thromboxane receptor sites (Homo sapiens, UniProt P21731).
T1 construct: Platelet-rich plasma is obtained from fresh, citrated human blood; endogenous in cells; host or cells: human platelets in platelet-rich plasma from fresh citrated blood
T1 sequence (P21731 1-343): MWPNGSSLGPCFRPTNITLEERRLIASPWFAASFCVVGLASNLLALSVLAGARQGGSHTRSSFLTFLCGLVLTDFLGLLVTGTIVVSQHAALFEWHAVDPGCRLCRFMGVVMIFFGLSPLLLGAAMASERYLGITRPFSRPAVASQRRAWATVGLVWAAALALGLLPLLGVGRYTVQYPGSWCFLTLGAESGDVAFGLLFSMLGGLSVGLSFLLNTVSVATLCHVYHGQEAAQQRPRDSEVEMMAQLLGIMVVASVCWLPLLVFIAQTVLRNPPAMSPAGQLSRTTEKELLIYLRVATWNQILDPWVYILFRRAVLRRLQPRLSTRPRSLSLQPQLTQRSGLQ
Briefly: Human Platelet System (inhibition of aggregation by 11,9-(epoxymethano) PGH2 in platelet-rich plasma). The conditions noted are these: Gaddum-Schild Equation, agonist 11,9-(epoxymethano) PGH2, compound added 5 minutes before agonist, typical values, read-out: Affinity Constants (KB) Human Platelets (converted). How it is done:
(§1) The compound of Example 2 and various of the compounds of Example 8 are tested in the following three systems.
Platelet-rich plasma is obtained from fresh, citrated human blood. Addition of the agonist 11,9-(epoxymethano) PGH2 (1×10^-7 to 5×10^-7 M) causes immediate aggregation recorded as an increase in light transmission (600 nm). In a second experiment the compound under test is added 5 minutes previous to the addition to the PGH2 analogue. The dose of the PGH2 analogue added is then increased to a level which gives a similar response to that obtained in the absence of antagonist.
(§2) In the case of each system, the affinity constant, KB, for the compound under test is calculated according to the Gaddum-Schild Equation (based on Law of Mass Action). [formula]

In experiment [2] the target is T2, thromboxane receptor sites (Cavia porcellus, UniProt A0A286Y4I8).
T2 construct: from tissue; host or cells: guinea pig trachea, spiral strips
T2 sequence (A0A286Y4I8 1-347): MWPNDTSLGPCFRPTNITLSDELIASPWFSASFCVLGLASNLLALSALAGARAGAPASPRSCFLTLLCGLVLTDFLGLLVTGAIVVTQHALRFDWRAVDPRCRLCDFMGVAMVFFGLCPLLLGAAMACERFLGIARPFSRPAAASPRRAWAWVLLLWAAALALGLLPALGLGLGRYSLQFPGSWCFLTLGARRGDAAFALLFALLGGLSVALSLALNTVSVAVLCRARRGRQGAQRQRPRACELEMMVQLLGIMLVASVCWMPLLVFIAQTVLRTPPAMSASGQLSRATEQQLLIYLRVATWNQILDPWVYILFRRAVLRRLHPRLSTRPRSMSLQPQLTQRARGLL
Briefly: Guinea Pig Trachea System (inhibition of tension response of spiral strips of trachea to 11,9-(epoxymethano) PGH2). Conditions: Gaddum-Schild Equation; agonist 11,9-(epoxymethano) PGH2; atropine sulphate and indomethacin present; compound added 50 minutes before agonist; 37° C; typical values; read-out: Affinity Constants (KB) Guinea Pig Trachea (converted). As to the method:
as §1
Guinea Pig Trachea System
Spiral strips of trachea are suspended in Kreb's-Henseleit solution, additionally containing atropine sulphate (2×10^-8 M) and indomethacin (10^-6), aerated with 95% O2 /5% CO2 and maintained at 37° C. Tension changes are recorded with a Grass FTO3 force transducer. Initially, cumulative dose response curves to the agonist 11,9-(epoxymethano) PGH2 are obtained (typically at the same concentrations as for the rabbit aorta system). In a second experiment, the compound under test is added 50 minutes previous to the addition of the series of agonist doses.
as §2

Experiment [3] concerns the target T3, thromboxane receptor sites (Oryctolagus cuniculus, UniProt Q6WQI8).
T3 construct: contraction to 11,9-(epoxymethano) PGH2 (U-46619)
T3 sequence (Q6WQI8 1-233): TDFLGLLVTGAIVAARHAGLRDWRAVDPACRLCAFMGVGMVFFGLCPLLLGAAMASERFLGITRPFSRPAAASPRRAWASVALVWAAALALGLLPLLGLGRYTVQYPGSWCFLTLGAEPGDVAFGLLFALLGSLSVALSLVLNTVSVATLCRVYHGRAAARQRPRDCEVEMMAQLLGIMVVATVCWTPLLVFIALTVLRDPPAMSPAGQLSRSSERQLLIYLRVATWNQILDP
Briefly: Rabbit Aorta System (inhibition of tension response of spiral strips of thoracic aorta to 11,9-(epoxymethano) PGH2). Conditions: for Kb: Gaddum-Schild Equation, agonist 11,9-(epoxymethano) PGH2, compound added 50 minutes before agonist, 37° C, typical values, read-out: Affinity Constants (KB) Rabbit Aorta (converted). As to the method: as §1
Sprial strips of thoracic aorta are suspended in Kreb's-Henseleit solution aerated with 95% O2 /5% CO2 and maintained at 37° C. Tension changes are recorded with a Grass FTO3 force transducer. Initially, cumulative dose response curves to the agonist 11,9-(epoxymethano) PGH2 are obtained (typically at concentrations of 2×10^-9, 1×10^-8, 5×10^-8 and 2.5×10^-7 M). In a second experiment, the compound under test is added 50 minutes previous to the addition of the series of agonist doses.
as §2

In the case of `O=C(O)CCC/C=C\C[C@H]1[C@H]2CC[C@H](C2)[C@@H]1CNC(=O)Nc1ccccc1` (relative stereo) [--CH2 NHCONHC6 H5, 5-endo-(6'-Carboxyhex-2'Z-enyl)-6-exo-[N-(phenylcarbamoyl)-aminomethyl]-bicyclo[2,2,1]heptane], the Kb in experiment [1] is 3570 nM; in experiment [2], 323 nM; in experiment [3] it was 1000 nM. Also, the “pure antagonist activity in the rabbit aorta system” value in experiment [3] (in words) is “pure antagonist activity”.
With `COc1ccc(NC(=O)NCCC2C3C=CC(C3)C2C/C=C\CCCC(=O)O)cc1` (centres unmarked) [--(CH2)2 NHCONHC6 H4 OCH3 (p)], the Kb in experiment [2] is 145 nM; in experiment [3], 833 nM.
Take `O=C(O)CCC/C=C\CC1C2C=CC(C2)C1CCNC(=O)Nc1ccccc1` (centres unmarked) [--(CH2)2 NHCONHC6 H5]: the Kb in experiment [1] was 29400 nM; in experiment [2], 196 nM; in experiment [3], 345 nM.
On to `COc1ccc(NC(=S)NCCC2C3C=CC(C3)C2C/C=C\CCCC(=O)O)cc1` (centres unmarked) [--(CH2)2 NHCSNHC6 H4 OCH3 (p)], for which the figures for the Kb in experiment [1] and in experiment [3] were 12500 nM and 526 nM, respectively.
Turning to `COc1ccc(NC(=S)NC(C)CC2C3C=CC(C3)C2C/C=C\CCCC(=O)O)cc1` (centres unmarked) [--CH2 CH(CH3)NHCSNHC6 H4 OCH3 (p)], the figures for the Kb in experiment [1], in experiment [2] and in experiment [3] were 5000 nM, 123 nM and 1050 nM, respectively.
With `COc1ccc(NC(=S)NCC2C3C=CC(C3)C2C/C=C\CCCC(=O)O)cc1` (centres unmarked) [--CH2 NHCSNHC6 H4 OCH3 (p)], the Kb in experiment [1] is 13900 nM; in experiment [2], 154 nM; in experiment [3] it was 169 nM.
